Laboratory results reported in ChEMBL document CHEMBL3758181, “New approach towards the synthesis of selenosemicarbazones, useful compounds for Chagas' disease” (Eur J Med Chem, 2016).
Calls of active or inactive are those of the source. The calls are words filed in the database; no cut-off is given here.

Experiments:
Trypanosoma cruzi [1] = assay: Antitrypanosomal activity against epimastigote stage of Trypanosoma cruzi Dm28c after 72 hrs by resazurin dye based microplate reader analysis; format: functional
[2] = Selectivity index, ratio of CC50 for African green monkey Vero cells to IC50 for epimastigote stage of Trypanosoma cruzi Dm28c; format: functional
Trypanosoma cruzi [3] = assay: (§1) Antitrypanosomal activity against trypomastigotes stage of Trypanosoma cruzi strain CL Brener infected in acute chagas BALB/c mouse model assessed as survival rate at 10 mg/kg/day, po administered for 14 days started on day 9 post infection measured at 30 to 60 days; format: functional
[4] = Toxicity in acute chagas BALB/c mouse model infected with trypomastigotes stage of Trypanosoma cruzi strain CL Brener assessed as mortality at 50 mg/kg/day, po administered for 14 days started on day 9 post infection measured on day 20; format: organism-based; settings: in vivo
Trypanosoma cruzi [5] = assay: as §1, with “assessed as reduction in parasitaemia at 10” for “assessed as survival rate at 10”, “60 days by Neubauer chamber analysis relative to control” for “60 days”; format: functional; parameters: scale not given: the % may be the effect or the level left
Trypanosoma cruzi [6] = assay: as §1, with “time for maximum parasitaemia parasitaemia” for “survival rate”, “by Neubauer chamber analysis (reference value: 26 days)” for “measured at 30 to 60 days”; format: functional
Mus musculus = assay: Toxicity in acute chagas BALB/c mouse model infected with trypomastigotes stage of Trypanosoma cruzi strain CL Brener assessed as mortality at 50 mg/kg/day, po administered for 14 days started on day 9 post infection measured at 30 to 60 days; format: organism-based; settings: in vivo
Trypanosoma cruzi [7] = assay: Antitrypanosomal activity against trypomastigotes stage of Trypanosoma cruzi strain CL Brener infected in acute chagas BALB/c mouse model assessed as survival rate at 50 mg/kg/day, po administered for 14 days started on day 9 post infection measured at 30 to 60 days; format: functional, organism-based

Compound	IC50 (Trypanosoma cruzi [1]) [µM]	further results
CN(C)c1ccc(/C=N/NC(N)=[Se])cc1	26.2	–
C/C(=N\NC(N)=[Se])c1cccc(Br)c1	1.2	Ratio CC50/IC50 [2]: 39; survival at 10 mg/kg/day (Trypanosoma cruzi [3]): 71%; mortality at 336 h [4]: 100%; Activity (Trypanosoma cruzi [5]): 50%; Time (Trypanosoma cruzi [6]): 26 days
C/C(=N\NC(N)=[Se])C(C)C	50.2	–
COc1ccc(/C=N/NC(N)=[Se])cc1	25.5	–
CC/C(=N\NC(N)=[Se])c1cccc(C(F)(F)F)c1	6.5	–
C/C(=N\NC(N)=[Se])c1cccc(C)c1	12.2	–
C/C(=N\NC(N)=[Se])c1ccccc1	12.4	–
O=C(Cn1ccnc1[N+](=O)[O-])NCc1ccccc1 [BENZNIDAZOLE]	12.5	Ratio CC50/IC50 [2]: 25; Activity (Mus musculus): Non-toxic; Activity (Trypanosoma cruzi [7]): Active
C/C(=N\NC(N)=[Se])c1ccc(Cl)c(Cl)c1	50.2	–
C/C(=N\NC(N)=[Se])c1cccc(Cl)c1	12.5	–
